The source of these data is ChEMBL document CHEMBL1201862, “PubChem BioAssay data set” (2004).

Some test systems named below: EKVX; HCT-116; Malme-3M; HT-29; TK-10; SK-MEL-2; UO-31; DU-145; SN12C; T47D; OVCAR-8; HL-60; PC-3; 786-0; IGROV-1; NCI/ADR-RES; SNB-19; MCF7.
Test in all cases: NCI tumour cell line growth inhibition, 48 h

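96-well plates; 48 h exposure; 5 concentrations. Endpoints by linear interpolation between flanking doses. Not reached: highest tested concentration assigned. Here, GI50 denotes the concentration required for 50% inhibition of growth.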 Calls of active or inactive are those of the source. No stated cut-off is given here; in the data, active = GI50 up to about 1.1 µM and inactive = higher.

Regarding `O=[N+]([O-])C(/C=C(\Cl)[N+](=O)[O-])=C(N1CCCCC1)N1CCCCC1`, the GI50 was > 100 µM (inactive) with EKVX; 21.7 µM (inactive) in the assay with HCT-116; 9.44 µM (inactive) with Malme-3M; 31.3 µM (inactive) with HT-29; > 100 µM (inactive) in the assay with TK-10; 30 µM (inactive) in the assay on SK-MEL-2. The GI50 in the assay on UO-31 was 21.3 µM (inactive); with DU-145 it was 62.5 µM (inactive); with SN12C, 45 µM (inactive); in the assay with T47D, 53 µM (inactive); in the assay with OVCAR-8, 44.8 µM (inactive); with HL-60, 20.1 µM (inactive). In addition, the GI50 was 39.6 µM (inactive) in the assay on PC-3; 36.6 µM (inactive) with 786-0; 21.9 µM (inactive) with IGROV-1; 26.9 µM (inactive) with NCI/ADR-RES; > 100 µM (inactive) with SNB-19; 0.631 µM (active) with MCF7.

In the case of `CCCCCCc1cc2cc(-c3cn4c(n3)sc3ccccc34)c(=O)oc2cc1O`, the GI50 was 99.8 µM (inactive) with EKVX; > 95.1 µM (inactive) with HCT-116; 2.36 µM (inactive) in the assay with Malme-3M; 15.4 µM (inactive) in the assay with HT-29; > 100 µM (inactive) in the assay on TK-10; > 100 µM (inactive) in the assay on SK-MEL-2. In addition, the GI50 with UO-31 was > 100 µM (inactive); with DU-145, > 100 µM (inactive); in the assay with SN12C, > 100 µM (inactive); in the assay with T47D it was > 100 µM (inactive); in the assay on OVCAR-8, 5.82 µM (inactive); with HL-60, > 60.3 µM (inactive). The GI50 was > 100 µM (inactive) in the assay on PC-3; > 31.6 µM (inactive) in the assay on 786-0; > 100 µM (inactive) in the assay on IGROV-1; > 100 µM (inactive) in the assay with NCI/ADR-RES; > 100 µM (inactive) in the assay on SNB-19; > 100 µM (inactive) with MCF7.

In the case of `CSc1nc2ccccc2c(=O)n1/N=C1\C(=O)N(CN2CCCCC2)c2ccc(Cl)cc21`, the GI50 in the assay on EKVX is 14.1 µM (inactive); in the assay with HCT-116, 18.5 µM (inactive); in the assay on Malme-3M, > 100 µM (inactive); with HT-29, 36.7 µM (inactive); in the assay with TK-10 it was 26.4 µM (inactive); with SK-MEL-2, 19.5 µM (inactive). In addition, the GI50 with UO-31 is 45.8 µM (inactive); in the assay with DU-145, 17.3 µM (inactive); in the assay with SN12C, 28.7 µM (inactive); with T47D, 13.3 µM (inactive); in the assay on OVCAR-8 it was 37.2 µM (inactive); in the assay with HL-60, 10.9 µM (inactive). Also, the GI50 in the assay on PC-3 was 29.4 µM (inactive); with 786-0, 22.3 µM (inactive); in the assay on IGROV-1, 13.5 µM (inactive); in the assay on NCI/ADR-RES, 34.8 µM (inactive); with SNB-19, 61.5 µM (inactive); in the assay with MCF7, 18.7 µM (inactive).

For `CN(C)c1ccc(/C=C2\C[C@H]3[C@@H]4CCC5=CC(=O)CC[C@]5(C)[C@H]4CC[C@]3(C)C2=O)cc1`, the GI50 in the assay on EKVX was 19.2 µM (inactive); in the assay on HCT-116, 24.7 µM (inactive); in the assay with Malme-3M it was 25 µM (inactive); in the assay on HT-29 it was 23.9 µM (inactive); in the assay with TK-10, 32.5 µM (inactive); in the assay with SK-MEL-2, 50.9 µM (inactive). Besides, the GI50 is 63.2 µM (inactive) with UO-31; 76.6 µM (inactive) in the assay on DU-145; 44.3 µM (inactive) with SN12C; 17.4 µM (inactive) in the assay with T47D; 31.8 µM (inactive) in the assay with OVCAR-8; 17.2 µM (inactive) in the assay with HL-60. The GI50 with PC-3 was 12.6 µM (inactive); in the assay on 786-0, 48 µM (inactive); with IGROV-1, 63.1 µM (inactive); in the assay on NCI/ADR-RES, 38.3 µM (inactive); in the assay on SNB-19, > 100 µM (inactive); in the assay on MCF7 it was 21.8 µM (inactive).

For the molecule `COc1ccc(/C=N/NS(=O)(=O)c2ccc(/C=C3\NC(=O)NC3=O)cc2)cc1`, the GI50 with EKVX, in the assay with HCT-116, in the assay on Malme-3M, in the assay on HT-29, with TK-10 and in the assay on SK-MEL-2 was > 100 µM (inactive) each time. Further, the GI50 in the assay on UO-31 was > 100 µM (inactive); in the assay on DU-145 it was > 100 µM (inactive); with SN12C, > 100 µM (inactive); with T47D, > 100 µM (inactive); in the assay on OVCAR-8, 51.5 µM (inactive); with HL-60, 98.6 µM (inactive). Moreover, the GI50 was > 100 µM (inactive) in the assay with PC-3; 47.1 µM (inactive) in the assay on 786-0; 87.5 µM (inactive) in the assay with IGROV-1; > 100 µM (inactive) in the assay on NCI/ADR-RES; 90.8 µM (inactive) in the assay with SNB-19; > 100 µM (inactive) in the assay on MCF7.

In the case of `COc1cc(C2c3cc4c(cc3OC(NNS(=O)(=O)c3ccc(C)cc3)C2C)OCO4)cc(OC)c1OC` (centres undefined), the GI50 is 2.05 µM (inactive) in the assay on EKVX; 1.29 µM (inactive) in the assay on HCT-116; 3.04 µM (inactive) with Malme-3M; 1.34 µM (inactive) in the assay on HT-29; 6.7 µM (inactive) in the assay on TK-10; 0.984 µM (active) with SK-MEL-2. The GI50 with UO-31 was 5.14 µM (inactive); in the assay with DU-145, 3.83 µM (inactive); in the assay with SN12C, 4.21 µM (inactive); in the assay on T47D, 3.48 µM (inactive); in the assay on OVCAR-8, 8.91 µM (inactive); with HL-60, 0.5 µM (active). The GI50 with PC-3 is 1.28 µM (inactive); with 786-0 it was 7.76 µM (inactive); with IGROV-1, 2.68 µM (inactive); with NCI/ADR-RES, 3.24 µM (inactive); in the assay on SNB-19, 3.58 µM (inactive); with MCF7, 1.48 µM (inactive).

As to `COc1ccccc1CC1(O)OC(=O)c2ccccc21` (centres undefined), the GI50 in the assay on EKVX, with HCT-116, in the assay with Malme-3M, in the assay on HT-29, with TK-10 and in the assay on SK-MEL-2 was > 100 µM (inactive) each time. The GI50 with UO-31, in the assay on DU-145, in the assay with SN12C, with T47D, with OVCAR-8 and with HL-60 was > 100 µM (inactive) in each case. The GI50 with PC-3, in the assay with 786-0, in the assay with IGROV-1, in the assay with NCI/ADR-RES, in the assay with SNB-19 and in the assay with MCF7 was > 100 µM (inactive) each time.

Take `O=C(NN1C(=O)C=CC1=O)c1ccccc1Nc1ccccc1C(=O)NN1C(=O)C=CC1=O`: the GI50 in the assay on EKVX, with HCT-116, in the assay on Malme-3M, with HT-29, with TK-10 and with SK-MEL-2 was > 100 µM (inactive) each time. Besides, the GI50 in the assay with UO-31, with DU-145, with SN12C, in the assay on T47D, in the assay with OVCAR-8 and with HL-60 was > 100 µM (inactive) in each case. Moreover, the GI50 in the assay on PC-3, in the assay with 786-0, in the assay on IGROV-1, in the assay with NCI/ADR-RES, with SNB-19 and in the assay with MCF7 was > 100 µM (inactive) each time.
